In article PMC10791743, “Selective CK1α degraders exert antiproliferative activity against a broad range of human cancer cell lines” (Nature Communications, 2024):

Experiments:
Type in all cases: in vitro ADME
[1] = Metabolic stability in cryopreserved hepatocytes, mouse; conditions: 1 μM; for Remaining: Pooled Mouse Hepatocytes
Procedure: (§1) page 34: UHPLC-MS/MS System: Chromatographic separation was performed on an Acquity UPLC BEH […] with 6500+ Qtrap system. […] software suite. The UPLC column was maintained at 55 °C. Mobile phase A was 0.1% formic acid in MilliQ H2O and Mobile phase B was 0.1% formic acid in acetonitrile. The flow rate was 0.9 […] The mass spectrometer was operated in positive-ion mode with electrospray ionization. MRM transition m/z […] plasma stability and plasma protein binding. The following MS parameters were employed for analyte measurements: ion spray voltage 5 kV, temperature 550 °C, gas 1 and gas 2 were 60, entrance potential (EP): 10 V, declustering potential (DP): 50 V, collision energy (CE): 27 V, and collision cell exit potential (CXP): 16 V. Metabolic Stability in mouse and human cryopreserved hepatocytes. 10 mM test compounds were provided by Compound Sample Group. Diluted 10 mM test compounds and 30 mM positive control compounds (7-ethoxycoumarin) to 1 mM and 3 mM with DMSO in 96-well plates. Diluted 1 mM test compounds and 3 mM positive control compounds to 100 μM and 300 μM dosing solutions with ACN. Cryopreserved cells were thawed, isolated and suspended in Incubation Medium, then diluted with pre-warmed Incubation Medium to 0.5 × 10^6cells/mL. Added 198 μL of pre-warmed cell suspensions in 96 -well plates. Transferred 125 μL of stop solution (acetonitrile containing 200 ng/mL tolbutamide and 200 ng/mL labetalol as internal standards) in a set of pre- labeled 96-well plates. Spike d 2 μL dosing solution to each well of 96 -well plates in duplicates. For T0 Samples, mix ed to achieve a homogenous suspension for about 1 min, then immediately transferred 25 μL of each sample into well containing 125 μL of ice -cold stop solution followed by mixing. Incubated all plates at 37°C in a 95% humidified incubator at 5% CO 2 to start the reactions page 35: with constant shaking at about 600 rpm. At 15, 30, 60 and 90 min, mixed samples and then transferred 25 μL of each sample at each time point to well containing 125 μL of ice -cold stop solution followed by mixing. Medium Control (MC) sample plates (labeled as T0-MC and T90- MC) were prepared at T0 and T90 by adding the same components to each well except cell suspensions. At each corresponding time point, stopped the reactions by removing the plates from incubator and mixing with 125 μL of ice-cold stop solution. Vortexed the plates immediately on a plate shaker at 500 rpm for 10 minutes. Then, centrifuge d all sample plates at 3220 x g for 20 min at 4°C. After centrifugation, 80 μL/well of supernatant in the sample plates were transferred to another set of pre-labeled 96-well plates which containing 240 μL of ultra pure water according to the plate map. Analytical plates were sealed and stored at 4°C until LC-MS/MS analysis. Thawing Medium: Williams' Medium E containing 5% fetal bovine serum and 30% Perc oll solution and other supplements. Incubation Medium: Williams' Medium E (no phenol red) containing 2 mM L-Glutamine and 25 mM HEPES. Stop Solution: Acetonitrile containing 200 ng/mL tolbutamide and labetalol as internal standards. Dilution Solution: Ultra-pure water. The remaining percents of test articles after incubation were calculated by the follow equations: Equation ( 6): Use equation of first order kinetics [NT] […] The data was […] concatenated with a reversed decoy database for evaluating False Discovery Rate (FDR). […]

[2] = Metabolic stability in cryopreserved hepatocytes, human; conditions: Pooled Human Hepatocytes, 1 μM
Procedure: as §1

[3] = Medium control without cells (hepatocyte stability assay); conditions: 90 min, 1 μM

Which results are given for `O=C1CCC(N2Cc3cc(Nc4noc5ccccc45)ccc3C2=O)C(=O)N1` (stereo not shown) [SJ001043149-3]?
k ([1]; Pooled Mouse Hepatocytes (first result line, species inferred from Ln(Remaining))): 0.0013 min⁻¹; Remaining ([1]; 15 min): 83.3%; Remaining ([1]; 30 min): 86.1%; Remaining ([1]; 60 min): 89.6%; Remaining ([1]; 90 min): 81.4%; Remaining ([2]; 15 min): 110.2%; Remaining ([2]; 30 min): 88.9%; Remaining ([2]; 60 min): 93.8%; Remaining ([2]; 90 min): 108.9%; Remaining [3]: 94.5%
